In ChEMBL document CHEMBL1124251, “Topical nonsteroidal antipsoriatic agents. 2. 2,3-(Alkylidenedioxy)naphthalene analogues of lonapalene” (1988):

system: Mus musculus; experiment: Percent inhibition of arachidonic acid induced mouse ear edema at 2 mg of total dose; type: functional

SMILES	Inhibition
CC(C)(C)C(=O)Oc1c2c(c(OC(=O)C(C)(C)C)c3cc(Cl)ccc13)OCO2	8%
CC(C)C(=O)Oc1c2c(c(OC(=O)C(C)C)c3cc(Cl)ccc13)OCCO2	75%
CC(C)(C)C(=O)Oc1c2c(c(OC(=O)C(C)(C)C)c3cc(Cl)ccc13)OCCO2	41%
CC(=O)Oc1c2c(c(OC(C)=O)c3cc(Cl)ccc13)OCCCO2	40%
CC(C)C(=O)Oc1c2c(c(OC(=O)C(C)C)c3cc(Cl)ccc13)OCCCO2	27%
CCC(=O)Oc1c2c(c(OC(=O)CC)c3cc(Cl)ccc13)OCCCO2	10%
CCCC(=O)Oc1c2c(c(OC(=O)CCC)c3cc(Cl)ccc13)OCCCO2	35%
CC(C)(C)C(=O)Oc1c2c(c(OC(=O)C(C)(C)C)c3cc(Cl)ccc13)OCCCO2	10%
COc1c(OC)c(OC(C)=O)c2cc(Cl)ccc2c1OC(C)=O [LONAPALENE]	54%
CCC(=O)Oc1c2c(c(OC(=O)CC)c3cc(Cl)ccc13)OCO2	35%
O=C(Oc1c2c(c(OC(=O)c3ccccc3)c3cc(Cl)ccc13)OCO2)c1ccccc1	10%
CCC(=O)Oc1c2c(c(OC(=O)CC)c3cc(Cl)ccc13)OCCO2	30%
CC(=O)Oc1c2c(c(OC(C)=O)c3cc(Cl)ccc13)OCCO2	24%
CC(=O)Oc1c2c(c(OC(C)=O)c3cc(Cl)ccc13)OCO2	61%
CCCC(=O)Oc1c2c(c(OC(=O)CCC)c3cc(Cl)ccc13)OCCO2	26%

system: Mus musculus; experiment: Percent inhibition of arachidonic acid induced mouse ear edema at 2 mg of total dose; Insufficiently soluble in acetone; type: functional, organism-based

SMILES	inhibition
O=C(Oc1c2c(c(OC(=O)c3ccccc3)c3cc(Cl)ccc13)OCCO2)c1ccccc1	Insufficiently soluble in acetone
O=C(Oc1c2c(c(OC(=O)c3ccccc3)c3cc(Cl)ccc13)OCCCO2)c1ccccc1	Insufficiently soluble in acetone
